Experimental data published in patent US20250114472A1, “CONJUGATE AND USE THEREOF” (BEIJING CHEMPION BIOTECHNOLOGY CO., LTD., priority 2022, published 2025).
Where a SMILES comes first, the peptide text is derived from it. [ ]: non-standard residue; d: D form. The star is where a group is joined. Dolaproine = CO[C@@H]([C@@H]1CCCN1)[C@@H](C)C(=O)O; Dil = CC[C@H](C)[C@H](NC)[C@@H](CC(=O)O)OC; X1 = C[C@@H](N*)[C@@H](O)c1ccccc1; NMeV = CN[C@H](C(=O)O)C(C)C

Test system: NCI-N87 cells
Experiment: Cytotoxicity assay (Cell Titer Glo cell viability)
Format: cell-based
Details: 144 hours, CTG
Text: Cell viability assay was used to detect the cytotoxicity of an ADC antibody on NCI-N87 cells. This method can quantitatively analyze and specifically detect the cytotoxicity of an ADC antibody on NCI-N87 cells. Cells cultured without addition of ADC antibody were used as a blank control to determine the threshold of the cell viability detection. A signal below this threshold was considered as a specific signal generated after the ADC antibody killed cells. NCI-N87 cells (5×10^3 cells/well) were resuspended in a RPMI1640 medium containing 15% FBS and inoculated into a black 96-well plate with transparent bottom in a volume of 50 μL. The 96-well plate was placed in an incubator set at 37° C. and 5% CO2 overnight. After the overnight incubation, 50 μL of different concentrations of ADC antibodies or MMAE (starting from 400 nM, 4-fold serial dilution) were added to the 96-well plate (making the total volume to 100 μL/well), and the 96-well plate was placed in an incubator set at 37° C. and 5% CO2 for 144 hours. Cell Titer Glo (50 μL/well) was added to each well and the mixture was thoroughly mixed. The luciferase intensity was read using Envision. The cytotoxic effect was calculated using the following formula: cytotoxicity %=100* (RFUcell only−RFUsample)/RFUcell only. The IC50 value was calculated by four-parameter nonlinear regression analysis using GraphPad Prism 7 software.

## CC[C@H](C)[C@@H]([C@@H](CC(=O)N1CCC[C@H]1[C@H](OC)[C@@H](C)C(=O)N[C@H](C)[C@@H](O)c1ccccc1)OC)N(C)C(=O)[C@@H](NC(=O)[C@@H](NC)C(C)C)C(C)C [MMAE, monomethyl auristatin E] (H-[NMeV]V[Dil][Dolaproine]-X1)
From 400 nM
  Max Inh %: 90.41%
Homo sapiens
  IC50: 0.12 nM
